Source: patent US12084422B2, “Phenyl-n-quinoline derivatives for treating a RNA virus infection” (ABIVAX, priority 2018, dated 2024)

Experiments:
[1] = tested on: Chikungunya Virus (CHIKV) strain LR2006-OPY1 with GFP modification (CHIK 5'LR); test: Inhibition of Chikungunya virus (CHIKV) production in infected HEK293T cell line (GFP fluorescence); type: cell-based; details: HEK-293T, infected HEK293T cells; for inhibition at 1 µM: compounds at 1 μM, MOI 0.1, 22 h, values above 100 lowered to 100, read-out: % CHIKV Inhibition Mean (n = 2); for IC50: second round of experiments
Procedure: The ability of the compounds to inhibit viral replication was assessed with an experiment in which infected cells were treated by compounds of formula (I) at 1 μM. As a positive control for inhibition of Chikungunya, Ribavirin was used. Toxicity of the compounds was assessed in parallel.
Human embryonic kidney cells 293T (HEK293T, CRL-11268) were maintained in Dulbecco's modified Eagle's Medium (DMEM, 31966-021, Thermo Fisher Scientific) supplemented with 10% of fetal bovine serum (FBS), penicillin and streptomycin. After removal of the medium, cells were washed with a Ca^2+- and Mg^2+-free salt solution to remove all traces of serum. After aspiration of wash solution, cells were dissociated with 0.25% Trypsin-EDTA solution and incubated 30 s at least in 37° ° C. incubator. Concentration of cell suspension was determined by an automatic cell counter (EVE, NanoEntek) and, if needed, adjusted to 0.33×10^6 cells/mL with DMEM medium supplemented with 10% FBS.
100 μL of the cell suspension were dispatched in a ViewPlate-96 Black (6005182, PerkinElmer) and in a transparent 96-well cell culture plate (655180, Greiner bio-one). After an incubation for 24 h at 37° C. under 5% of CO2, compounds were added at the proper concentration.
An intermediate dilution was prepared with DMSO (D8418, Sigma) at 2 mM in a 96-well V-bottom microplate from the stock solution:
Mix 1 μL of the 50 mM stock library in 25 μL of DMSO.
Mix 2 μL of the 25 mM stock library in 25 μL of DMSO.
An intermediate dilution was prepared with DMSO (D8418, Sigma) at 25 mM in a 96-well V-bottom microplate from the stock solution:
Mix 2 μL of the 50 mM stock library in 2 μL of DMSO.
Serial dilutions were performed in 2 μL of DMSO 13 times to reach 0.0015 mM as follows in table III:
For both screen and determination of IC50 1 μL of each solution was added in a 1 mL Masterblock 96 wells (Greiner bio-one, 780261) containing 1 mL of DMEM medium. As a positive control, 5 μL of a 80 mM Ribavirin solution (R9644, Sigma) is added to 1 mL of DMEM. On the other hand, DMSO is used as a negative control.
[…]. Vector Borne Zoonotic Dis. 2006; 6(4)). This modified virus was used to infect cells at MOI 0.1. […].
Medium was removed after 22 h at 37° ° C. under 5% of CO2 and cells were washed as described above. 60 μL of RIPA buffer (50 mM Tris-HCl pH8, 100 mM NaCl, 1 mM MgCl2, 1% Triton X-100) was added to cells and incubated for at least 20 min before reading fluorescence signal. Pierce 660 nm Protein Assay Reagent (22660, Thermo scientific) was used to normalize fluorescence signal by protein quantity.
A first round of experiments has been performed wherein the results are expressed as inhibition percentage, which is calculated as follows, through the following steps:
1. Fluorescence intensity (FI) 509 nm/Absorbance 660 nm (A660)=A
This ratio allows considering the infection (GFP virus) to the protein amount.
2. A′=A—background noise of non-infected plate,
3. B=Fluorescence intensity (FI)/Absorbance 660 nm (A660) of infected but non treated plates,
4. C=A′/B which is then converted as the percentage of infection after treatment, compared to non-treated sample, and subsequently as the […]. For instance, a value of 100 in Table IV here below means that, after treatment, the signal attributed to GFP fluorescence is abolished, which is correlated to the absence of infection.
This value corresponds to the inhibition's percentage.
The following Table IV encompasses said C′ value for some compounds as calculated above with a mean of 2 experiments, and the corresponding standard deviation.
Some values were originally above 100. In these cases, the value has been lowered to 100. This means that some molecules also have an impact on the viability of the cells. In other words, the A value may be lower than the background noise.
Moreover, for each measure, the test was performed with Ribavirin as control. The value of the inhibition percentage was checked, giving 100%.

[2] = tested on: DENV-2 strain 16681; test: Screening for DENV-2 inhibition using Viral ToxGlo assay in A549 cells; type: cell-based, Dengue 2 virus; details: Dengue virus, DENV2, A549, 120 h, read-out: % DENV-2 Inhibition Mean (n = 3)
Procedure: Protocol for Screening Antiviral Compounds for DENV-2 Inhibition and Cytotoxicity Using Viral ToxGlo Assay
A549 cells were maintained in Dulbecco's Modified Eagle Medium (DMEM) supplemented with 10% fetal bovine serum, 100 U/ml penicillin and 100 μg/ml streptomycin. For the purposes of the screening assay they were grown to 90% confluency, trypsinized and recovered. The trypsin was neutralised with cell culture media and cells were centrifuged at 150×g for 5 minutes before discarding the supernatant and resuspending cell pellet in assay media (DMEM supplemented with 2% fetal bovine serum and 100 U/ml penicillin and 100 μg/ml streptomycin). The cells were seeded into 96-well white clear-bottomed cell culture plates at a density of 1.0×10^4 cells/well in 50 μl. For the media/background control column assay media only was added. Cell plates were placed in a humid chamber and incubated overnight at 37° C./5% CO2. After overnight incubation cells were checked for confluency and healthy appearance.
Test compounds were prepared at a final concentration of 10 μM, in a maximum DMSO concentration of 1% (final assay concentration maximal 0.1% DMSO) and added to the cell plates in volumes of 10 μl. For cell control and virus control wells the test article solvent only was added. As a positive inhibition control, 7-Deaza-2′-C-methyladenosine was added at 100 μM in 3 wells. Virus (DENV-2 strain 16681) or assay media for cytotoxicity test wells and media/cell control wells was added immediately after test articles at an MOI of 0.5, 40 for 96 well plates respectively. Virus suspension was prepared by thawing DENV-2 frozen stocks and diluting to the required concentration of plaque forming units in assay media.
Cell plates were further incubated inside a humid chamber for 5 days p.i at 37° C./5% CO2. After the incubation period cells were observed under the microscope to check for characteristic cytopathic effect in virus control wells and healthy cells in the cell control wells. After plates were adjusted to room temperature 20 μl Viral ToxGlo (Promega) was added to each well of the 96-well cell plates. Plates were incubated at room temperature for 5 minutes before measuring the luminescence on a spectrophotometer (Envision, PerkinElmer).
DENV-2 inhibition was calculated as percentage of cytopathic effect inhibition relative to the virus control and cytotoxicity as percentage of cell survival relative to cell control wells.

SMILES | inhibition at 1 µM [1] [%] | IC50 [1] [nM] | inhibition at 10 µM [2] [%]
CCc1cc(OC(F)(F)F)ccc1Nc1ccc2cccc(Cl)c2n1 [Compound 2, 8-chloro-N-(2-ethyl-4-(trifluoromethoxy)phenyl)quinolin-2-amine] | 100 | 1 to 200 | 
CC(C)Cc1cc(OC(F)(F)F)ccc1Nc1ccc2cccc(Cl)c2n1 [Compound 3, 8-chloro-N-(2-isobutyl-4-(trifluoromethoxy)phenyl)quinolin-2-amine] | 100 |  | 
FC(F)(F)Oc1ccc(Nc2ccc3cccc(Cl)c3n2)c(C2CC2)c1 [Compound 4, 8-chloro-N-(2-cyclopropyl-4-(trifluoromethoxy)phenyl)quinolin-2-amine] | 100 | 1 to 200 | 
CCc1cc(OC(F)(F)F)cc(C)c1Nc1ccc2cccc(Cl)c2n1 [Compound 5, 8-chloro-N-(2-ethyl-6-methyl-4-(trifluoromethoxy)phenyl)quinolin-2-amine] |  |  | 156
CCc1cc(OC(F)(F)F)ccc1Nc1ccc2ccccc2n1 [Compound 7, N-(2-ethyl-4-(trifluoromethoxy)phenyl)quinolin-2-amine] | 99 |  | 
FC(F)(F)Oc1ccc(Nc2ccc3ccccc3n2)c(C2CC2)c1 [Compound 8, N-(2-cyclopropyl-4-(trifluoromethoxy)phenyl)quinolin-2-amine] | 100 |  | 
CCOc1ccc(Nc2ccc3cccc(Cl)c3n2)c(C)c1 [Compound 12, 8-chloro-N-(4-ethoxy-2-methylphenyl)quinolin-2-amine] | 95 |  | 129
Cc1cc(OCCOC(F)(F)F)ccc1Nc1ccc2cccc(Cl)c2n1 [Compound 14, 8-chloro-N-(2-methyl-4-(2-(trifluoromethoxy)ethoxy)phenyl)quinolin-2-amine] | 91 |  | 
Cc1cc(OC2CCCC2)ccc1Nc1ccc2cccc(Cl)c2n1 [Compound 16, 8-chloro-N-(4-(cyclopentyloxy)-2-methylphenyl)quinolin-2-amine] | 98 | 1 to 200 | 77
Cc1cc(OC2CCCCC2)ccc1Nc1ccc2cccc(Cl)c2n1 [Compound 17, 8-chloro-N-(4-(cyclohexyloxy)-2-methylphenyl)quinolin-2-amine] | 100 | 1 to 200 | 
CC(C)Oc1ccc(Nc2ccc3cccc(Cl)c3n2)c(C2CC2)c1 [Compound 20, 8-chloro-N-(2-cyclopropyl-4-isopropoxyphenyl)quinolin-2-amine] | 99 | 1 to 200 | 94
Cc1c(Nc2ccc3cccc(Cl)c3n2)ccc(OC(C)C)c1C [Compound 21, 8-chloro-N-(4-isopropoxy-2,3-dimethylphenyl)quinolin-2-amine] | 100 | 1 to 200 | 
Cc1cc(OC2CCC2)ccc1Nc1ccc2cccc(Cl)c2n1 [Compound 22, 8-chloro-N-(4-cyclobutoxy-2-methylphenyl)quinolin-2-amine] | 100 | 1 to 200 | 82
Cc1cc(OCc2ccccn2)ccc1Nc1ccc2cccc(Cl)c2n1 [Compound 23, 8-chloro-N-(2-methyl-4-(pyridin-2-ylmethoxy)phenyl)quinolin-2-amine] | 82 |  | 
Fc1ccccc1Oc1ccc(Nc2ccc3ccccc3n2)cc1 [Compound 29, N-(4-(2-fluorophenoxy)phenyl)quinolin-2-amine] | 97 |  | 
Cc1ccc(Oc2ccc(Nc3ccc4cccc(Cl)c4n3)cc2)cc1 [Compound 31, 8-chloro-N-(4-(p-tolyloxy)phenyl)quinolin-2-amine] | 93 |  | 
Fc1ccccc1Oc1ccc(Nc2ccc3cccc(Cl)c3n2)cc1 [Compound 32, 8-chloro-N-(4-(2-fluorophenoxy)phenyl)quinolin-2-amine] | 90 |  | 
CCc1cc(Oc2ccccc2F)ccc1Nc1ccc2ccccc2n1 [Compound 39, N-(2-ethyl-4-(2-fluorophenoxy)phenyl)quinolin-2-amine] | 99 | 1 to 200 | 104
Cc1cc(OC(C)C)c(C(C)C)cc1Nc1ccc2cccc(Cl)c2n1 [Compound 40, 8-chloro-N-(4-isopropoxy-5-isopropyl-2-methylphenyl)quinolin-2-amine] |  | 1 to 200 | 97
CCc1cc(OC2CCC2)ccc1Nc1ccc2cccc(Cl)c2n1 [Compound 41, 8-chloro-N-(4-cyclobutoxy-2-ethylphenyl)quinolin-2-amine] |  | 1 to 200 | 
Clc1cccc2ccc(Nc3ccc(OC4CCC4)cc3C3CC3)nc12 [Compound 42, 8-chloro-N-(4-cyclobutoxy-2-cyclopropylphenyl)quinolin-2-amine] |  | 1 to 200 | 84
COc1ccc(Oc2ccc(Nc3ccc4ccccc4n3)c(C)c2)c(F)c1 [Compound 45, N-(4-(2-fluoro-4-methoxyphenoxy)-2-methylphenyl)quinolin-2-amine] |  | 1 to 200 | 
Cc1cc(Oc2ccccc2F)c(C)cc1Nc1ccc2cccc(Cl)c2n1 [Compound 63, 8-chloro-N-(4-(2-fluorophenoxy)-2,5-dimethylphenyl)quinolin-2-amine 2,2,2-trifluoroacetate] |  |  | 74
CCc1cc(Oc2ccc(OC)cc2F)ccc1Nc1ccc2ccccc2n1 [Compound 76, N-(2-ethyl-4-(2-fluoro-4-methoxyphenoxy)phenyl)quinolin-2-amine] |  |  | 78
COc1ccc(Oc2ccc(Nc3ccc4ccccc4n3)cc2)c(F)c1 [Compound 77, N-(4-(2-fluoro-4-methoxyphenoxy)phenyl)quinolin-2-amine] |  |  | 87
